Here are results for five compounds from patent US20030166301A1, “Multiple binding moiety chromatography device, methods of using and methods of making same” (priority 2001, published 2003).

Data set [1] concerns the target GABAA receptor. Put plainly: Frontal chromatography on MR-SP, marker (3H)-FTZ. It is filed as binding, rat.
Method: (§1) Solubilization of rat brain tissue: All of the tissue from four rat brains was homogenized in 30 ml of Tris-HCl buffer (50 mM, pH 7.4) containing 5 mM EDTA, 3 mM benzamidine and 0.2 mM PMSF for 3×20 seconds using a Polytron homogenizer (Brinkman Instruments, Westbury, N.Y., USA) at setting 6. The mixture was kept in an ice bath for 20 seconds between each homogenization step to prevent excessive heating of the tissue. The homogenized brain tissue was centrifuged for 10 minutes at 4° C. at 35,000×g, and the supernatant was discarded. The pellet was suspended in 10 ml of Tris-HCl buffer (50 mM, pH 7.4) containing 100 mM NaCl, 2 mM MgCl2, 3 mM CaCl2, 5 mM KCl, 2% sodium cholate, and 10 μg/ml leupeptin. The resulting mixture was stirred for 12 hours at 4° C. and centrifuged at 35,000×g.
(§2) Immobilization of solubilized receptors: The supernatant (receptor-cholate suspension) was mixed with 200 mg of dried IAM-PC packing material and stirred gently for 1 hour at 25° C., transferred into dialysis tubing, and dialyzed for 48 hours at 4° C. against 3×600 ml of Tris-HCl buffer (50 mM, pH 7.4) containing 5 mM EDTA, 100 mM NaCl, 0.1 mM CaCl2 and 0.1 mM PMSF. […]
(§3) The value of Vmin can be determined by running (^3H)-EB in a series of concentration of drugs and plotting 1/(Vmax−V) versus 1/(drug) extrapolating to infinite (drug). […]
Data set [2] addresses GABAA receptor. The following applies: rat brain membranes; read-out: Kd Standard; cited from earlier work.
The next data set deals with Nicotinic Receptor. The following applies: read-out: Kd Standard, cited from earlier work.
For another data set, the target named is NCT receptor (Rattus norvegicus, UniProt P09483+P12390). It is filed as binding.
Sequence of NCT receptor (P12390 25-500): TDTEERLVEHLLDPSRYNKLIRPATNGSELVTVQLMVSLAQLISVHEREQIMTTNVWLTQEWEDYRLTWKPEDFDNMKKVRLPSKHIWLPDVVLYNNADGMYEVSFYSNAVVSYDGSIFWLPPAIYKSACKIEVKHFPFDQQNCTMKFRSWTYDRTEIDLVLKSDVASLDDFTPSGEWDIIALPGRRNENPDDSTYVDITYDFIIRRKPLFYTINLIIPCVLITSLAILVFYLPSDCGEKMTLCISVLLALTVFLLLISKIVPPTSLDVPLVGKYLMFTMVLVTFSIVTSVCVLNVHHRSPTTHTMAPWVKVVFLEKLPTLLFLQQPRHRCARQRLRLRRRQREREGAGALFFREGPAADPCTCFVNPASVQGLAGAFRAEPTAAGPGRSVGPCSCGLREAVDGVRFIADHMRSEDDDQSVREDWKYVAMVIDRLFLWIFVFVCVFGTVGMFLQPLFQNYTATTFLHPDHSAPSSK
Sequence of NCT receptor (P09483 31-630): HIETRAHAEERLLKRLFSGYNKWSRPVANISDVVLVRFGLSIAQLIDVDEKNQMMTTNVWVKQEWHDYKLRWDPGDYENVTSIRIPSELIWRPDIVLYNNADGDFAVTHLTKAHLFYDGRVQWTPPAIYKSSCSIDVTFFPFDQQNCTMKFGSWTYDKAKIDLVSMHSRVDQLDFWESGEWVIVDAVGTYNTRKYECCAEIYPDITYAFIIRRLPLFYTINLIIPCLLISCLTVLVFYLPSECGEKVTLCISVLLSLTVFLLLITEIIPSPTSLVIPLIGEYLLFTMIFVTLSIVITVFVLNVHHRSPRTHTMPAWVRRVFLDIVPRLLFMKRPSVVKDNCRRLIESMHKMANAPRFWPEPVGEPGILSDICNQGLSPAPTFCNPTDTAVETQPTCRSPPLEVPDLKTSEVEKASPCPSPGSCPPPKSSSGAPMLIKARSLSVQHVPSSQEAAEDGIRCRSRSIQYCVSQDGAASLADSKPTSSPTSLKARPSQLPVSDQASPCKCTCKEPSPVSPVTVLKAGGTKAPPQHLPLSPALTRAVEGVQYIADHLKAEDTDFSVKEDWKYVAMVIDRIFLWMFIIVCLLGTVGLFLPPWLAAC
In another data set the target is PGP (Homo sapiens, UniProt P08183). Put plainly: Frontal chromatography on open tubular PGP column (PGP-OTB).
Sequence of PGP (P08183 whole entry): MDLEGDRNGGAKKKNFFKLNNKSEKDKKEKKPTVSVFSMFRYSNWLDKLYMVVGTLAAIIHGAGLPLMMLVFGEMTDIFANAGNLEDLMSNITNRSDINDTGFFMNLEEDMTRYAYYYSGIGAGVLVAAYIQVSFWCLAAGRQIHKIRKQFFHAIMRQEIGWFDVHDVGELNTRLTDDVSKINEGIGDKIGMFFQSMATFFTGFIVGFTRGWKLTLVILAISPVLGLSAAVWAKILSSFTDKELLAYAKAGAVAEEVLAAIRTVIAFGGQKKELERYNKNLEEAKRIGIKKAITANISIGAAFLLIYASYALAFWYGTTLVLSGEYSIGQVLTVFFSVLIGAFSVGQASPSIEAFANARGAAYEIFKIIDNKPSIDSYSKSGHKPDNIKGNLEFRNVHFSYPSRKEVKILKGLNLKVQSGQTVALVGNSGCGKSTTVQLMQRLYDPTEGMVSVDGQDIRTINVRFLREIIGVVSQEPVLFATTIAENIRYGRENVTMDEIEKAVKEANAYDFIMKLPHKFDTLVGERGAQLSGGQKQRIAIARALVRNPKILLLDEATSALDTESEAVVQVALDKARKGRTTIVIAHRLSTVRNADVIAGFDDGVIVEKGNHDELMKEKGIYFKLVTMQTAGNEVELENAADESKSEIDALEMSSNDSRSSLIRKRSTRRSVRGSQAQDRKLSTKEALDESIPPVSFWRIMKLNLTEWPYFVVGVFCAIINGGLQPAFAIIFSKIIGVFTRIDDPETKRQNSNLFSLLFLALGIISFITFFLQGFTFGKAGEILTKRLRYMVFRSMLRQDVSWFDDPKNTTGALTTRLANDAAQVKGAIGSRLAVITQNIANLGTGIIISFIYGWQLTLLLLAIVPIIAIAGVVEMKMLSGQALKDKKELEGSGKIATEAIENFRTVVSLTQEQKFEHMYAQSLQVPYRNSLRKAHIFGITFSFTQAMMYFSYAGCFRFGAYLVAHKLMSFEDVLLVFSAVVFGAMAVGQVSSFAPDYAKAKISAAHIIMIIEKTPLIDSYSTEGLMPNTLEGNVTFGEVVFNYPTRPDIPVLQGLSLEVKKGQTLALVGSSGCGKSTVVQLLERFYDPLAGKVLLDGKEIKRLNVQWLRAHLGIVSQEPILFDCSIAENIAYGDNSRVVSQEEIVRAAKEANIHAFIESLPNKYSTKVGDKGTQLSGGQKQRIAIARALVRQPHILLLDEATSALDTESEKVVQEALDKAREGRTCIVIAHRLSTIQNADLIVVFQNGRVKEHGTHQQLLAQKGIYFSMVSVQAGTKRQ

Values joined by “and” are separate entries in the source; they are usually repeats but may differ in a detail not shown here. Identical values can stand only once. Like-named read-outs stand apart in the source and are kept apart here.

Method for NCT receptor: as §1, §2, §3
Method for NMDA receptor: as §1
Immobilization of solubilized receptors: The supernatant (receptor-cholate suspension) was mixed with 200 mg of dried IAM-PC packing material and stirred gently for 1 hour at 25° C., transferred into dialysis tubing, and dialyzed for 48 hours at 4° C. against 3×600 ml of Tris-HCl buffer (50 mM, pH 7.4) containing 5 mM EDTA, 100 mM NaCl, 0.1 mM CaCl2 and 0.1 mM PMSF.
The resulting mixture was centrifuged for 3 minutes at 4° C. at 32,000×g, and the supernatant was discarded. The pellet (MR-SP) was washed with Tris-HCl buffer (50 mM, pH 7.4) and centrifuged. This process was repeated until the supernatant was clear. The MR-SP was then collected.
Chromatographic procedures: The MR-SP (200 mg) was packed into a HR 5/2 glass column (Amersham Pharmacia Biotech, Uppsala, Sweden) to yield a 150 mm×5 mm (ID) chromatographic bed. The column was then connected to a P 1000 isocratic HPLC pump (Thermo Separations, San Jose, Calif., USA). The mobile phase consisted of Tris-HCl buffer (50 mM, pH 7.4) delivered at a flow rate 0.4 ml/min at room temperature.
In the chromatographic studies, a 50 ml sample Superloop (Amersham Pharmacia Biotech) was used to apply a series of (^3H)-marker ligand concentrations through the MR-SP column to obtain elution profiles showing front and plateau regions. […]
Method for PGP: Preparation of open tubular capillary: A 25 cm×100 u ID capillary was cleaned with 0.5 N NaOH running through for 40 minutes at low pressure followed by water for 20 minutes. Then placed in the oven at 95° C. for 30 minutes. Then APTS (90 parts water: 10 parts APTS) was run through the column for 5 minutes at high pressure and placed in the oven for 30 minutes. This was repeated and left overnight. The following morning, a 1% gluteraldehyde solution in PBS was then run through at high pressure for 30 minutes followed by air. Then avidin (10 mg in 4 mL 50 mM PBS) was run through for 3 minutes at high pressure. Then both tips were submerged in the avidin solution overnight at 4° C. It was determined at this stage that the column needs to be washed for 4-6 hours at 50 ul/min with Tris buffer prior to continuing to the next stage. The purpose being to remove any unbound avidin. A frontal study using a 5 mL sample of 0.5 nM ^3H-Vinblastin (RM062702002) was carried out to determine if vinblastin had specific binding to avidin.
Subsequently, a solution of 14 mM BioX (15 mg of BioX in 1 mL DMSO) was run through the column at high pressure for 10 minutes and left in the solution for 48 hours. A frontal study of 0.5 nM ^3H-Vinblastin (5 mL) was carried out on the BiotinX-Avidin labeled OT column to determine if any interactions between vinblastin and biotin could be seen. […]

By Kd is commonly meant the equilibrium constant for the complex coming apart. As to `CN1C(=O)CN=C(c2ccccc2)c2cc(Cl)ccc21` [Diazepam], the Kd was 1 nM at GABAA receptor [1] (MR-SP from rat brain, 25 pM (3H)-FTZ marker, Tris-HCl 50 mM pH 7.4) and 1.3 nM at GABAA receptor [2].

Regarding `Clc1ccc(C2CC3CCC2N3)cn1` (stereo not shown) [Epibatidine], the Kd at Nicotinic Receptor (rat brain membranes) is 0.05 nM.

For `CN[C@H](CC(=O)O)C(=O)O` [NMDA, N-methyl D-aspartate], the “Displacement of (3H)-MK-801” value in the data set with NMDA receptor (displacer 1 mM to 2 mM in chromatographic buffer) is listed as “able to specifically displace”. In addition, on NMDA receptor (read-out: Kd Frontal, MR-SP, 2 nM (3H)-MK-801 marker, 1 μM L-glutamate and 1 μM glycine, two determinations (FIG. 2A, 2B)), the Kd is 1.2 nM and 0.6 nM.

Take `CN1CCCC1c1cccnc1` (stereo not shown) [Nicotine]: on Nicotinic Receptor, the Kd is 0.8 nM. Further, in the data set on GABAA receptor [1] (ligand at 1 μM in mobile phase), the “Effect on elution volume of 25 pM (3H)-FTZ” value was “no decrease in the elution volume”. Further, the “Effect on elution (breakthrough) volume of 60 pM (3H)-EB” value at NCT receptor is recorded as “reduction in the breakthrough volume”.

For the compound `CC[C@]1(O)C[C@@H]2CN(CCc3c([nH]c4ccccc34)[C@@](C(=O)OC)(c3cc4c(cc3OC)N(C)[C@H]3[C@@](O)(C(=O)OC)[C@H](OC(C)=O)[C@]5(CC)C=CCN6CC[C@]43[C@@H]65)C2)C1` [Vinblastin], the “Bmax (binding sites on the PGP-OTB column)” value on PGP (not told) turned out to be 3 mmol. Moreover, the dissociation constant Kd at PGP (read-out: Kd for the PGP-OTB column, 0.5 nM 3H-Vinblastin marker, r2 0.902) came to 97 nM.
